Legend:
[1] = Intrinsic dissolution experiments (Woods apparatus); assay type: physicochemical; details: approximately 37° C., 75 rpm, 900 mL medium, value (SD)
Description: Intrinsic dissolution experiments were conducted in a VanKel VK7010 dissolution apparatus equipped with a VK750A heater/circulator. An intrinsic dissolution apparatus (Woods apparatus) and hydraulic press were used to press samples of approximately 200 mg at approximately 1000 psi for 1 minute, giving a sample surface of 0.50 cm^2. Experiments were conducted in media of pH=1.2 HCl solution and pH =4.5 phosphate solution. 900 mL of medium was used for each experiment and the medium was maintained at approximately 37° C. The apparatus was rotated at 75 rpm. The Cary 50 UV/Vis spectrophotometer was utilized to sample automatically throughout the duration of the experiments.
Samples were analyzed with a Cary 50 UV-VIS double-beam spectrophotometer, and were analyzed in 1.000-cm quartz cuvettes at a wavelength of 271 nm. The detector was zeroed with a cuvette filled with dissolution medium prior to sample analysis. Wavelength calibration was performed using holmium oxide. The photometric accuracy was verified by measuring the intensity of the light at the detector when filters of known optical density were placed in the path of the beam.

[2] = Bioavailability (statement); assay type: in vivo; details: statement in words, dihydrate
[3] = Solubility in water (statement); assay type: physicochemical; details: statement in words, dihydrate
[4] = assay type: physicochemical
Description: Amorphous samples were exposed to ambient, 53%, and 97% relative humidities at ambient temperature (about 10° C. to about 30° C.). The samples were also exposed to 75% relative humidity at 40° C. The samples were stressed for up to 60 days. Samples were taken periodically throughout the study and analyzed by x-ray powder diffraction (XRPD) for presence of crystallinity.
Relative humidity stress studies were performed to assess the stability of amorphous alvimopan and solid dispersions. Studies were performed at ambient, 53%, and 97% relative humidity at ambient temperature. Ambient relative humidity and temperature was measured as approximately 24% and 22° C. Samples were also stressed at 75% relative humidity at 40° C. Samples were analyzed by XRPD for the presence of crystallinity.

[5] = Conversion of amorphous form to crystalline dihydrate form (background statement); assay type: physicochemical
Description: [[2(S)-[[4(R)-(3-hydroxyphenyl)-3(R),4-dimethyl-piperidinyl]methyl]-1-oxo-3-phenylpropyl]amino]acetic acid may exist in different crystalline forms, including hydrate forms, solvate forms and anhydrous form, and as an amorphous material. Above a relative humidity of about 15%, it exists in its crystalline dihydrate form. Below a relative humidity of about 15%, it exists in its anhydrous form. Amorphous [[2(S)-[[4(R)-(3-hydroxyphenyl)-3(R),4-dimethyl-piperidinyl]methyl]-1-oxo-3-phenylpropyl]amino]acetic acid is hygroscopic and converts to its crystalline dihydrate form when it is stressed, for example, at 54% relative humidity for 12 days or 75% relative humidity in the temperature range of about 40° C. to about 80° C. for three days. Under ambient conditions, amorphous [[2(S)-[[4(R)-(3-hydroxyphenyl)-3(R),4-dimethyl-piperidinyl]methyl]-1-oxo-3-phenylpropyl]amino]acetic acid completely converts to its crystalline dihydrate form after 66 days.

**Q.** What does the source list for `C[C@H]1CN(C[C@H](Cc2ccccc2)C(=O)NCC(=O)O)CC[C@@]1(C)c1cccc(O)c1` [crystalline alvimopan, [[2(S)-[[4(R)-(3-hydroxyphenyl)-3(R),4-dimethyl-1-piperidinyl]methyl]-1-oxo-3-phenylpropyl]amino]acetic acid dihydrate]?
**A.** Intrinsic Dissolution Rate, mg/min/cm^2 (SD), pH 1.2 HCl [1]: 0.148 (0.025) mg/min/cm^2; bioavailability ([2]; listed as Alvimopan): poor oral bioavailability; bioavailability ([2]; listed as alvimopan): lower bioavailability than the amorphous form; solubility in water ([3]; listed as Alvimopan): extremely low solubility in water; solubility in water ([3]; listed as alvimopan): lower solubility in water than amorphous; solubility in water ([3]; listed as compound of formula (II)): low solubility in water except at low or high pH conditions

**Q.** What does the source list for `C[C@H]1CN(C[C@H](Cc2ccccc2)C(=O)NCC(=O)O)CC[C@@]1(C)c1cccc(O)c1` [amorphous preparation, [[2(S)-[[4(R)-(3-hydroxyphenyl)-3(R),4-dimethyl-piperidinyl]methyl]-1-oxo-3-phenylpropyl]amino]acetic acid]?
**A.** Intrinsic Dissolution Rate, mg/min/cm^2 (SD), pH 1.2 HCl [1]: 0.217 (0.017) mg/min/cm^2; Stability conclusion of the stress studies [4]: stable under stress conditions except at 97% relative humidity; time stressed after which amorphous form converts to its crystalline dihydrate form ([5]; 54% relative humidity): 12 days; time stressed after which amorphous form converts to its crystalline dihydrate form ([5]; 75% relative humidity, about 40° C. to about 80° C.): three days; time after which amorphous form completely converts to its crystalline dihydrate form ([5]; ambient conditions): 66 days

— patent publication US7914776B2, “Solid dispersions of opioid antagonists” (Adolor Corporation, priority 2005, dated 2011)
